Patent US20210045385A1, “PYRIDAZINONE-SUBSTITUTED KETOXIMES AS HERBICIDES” (FMC Corporation, priority 2018, published 2021)

How the values were obtained:
Type in all cases: in vivo
[1] = test system: barnyardgrass (Echinochloa crus-galli); assay: Test A postemergence, visual plant response rating; conditions: for Barnyardgrass plant response rating (0 to 100 scale): 500 g ai/ha, postemergence, 0 is no effect, 100 is complete control; for Barnyardgrass plant response rating: Postemergence, 125 g ai/ha, 0 to 100 scale (0 no effect, 100 complete control)
Source text: (§1) Seeds of plant species selected from barnyardgrass (Echinochloa crus-galli), kochia (Kochia scoparia), ragweed (common ragweed, Ambrosia elatior), Italian ryegrass (Lolium multiflorum), foxtail, giant (giant foxtail, Setaria faberii), foxtail, green (green foxtail, Setaria viridis), and pigweed (Amaranthus retroflexus) were planted into a blend of loam soil and sand and treated preemergence with a directed soil spray using test chemicals formulated in a non-phytotoxic solvent mixture which included a surfactant.
(§2) At the same time, plants selected from these weed species and also wheat (Triticum aestivum), corn (Zea mays), blackgrass (Alopecurus myosuroides), and galium (catchweed bedstraw, Galium aparine) were planted in pots containing the same blend of loam soil and sand and treated with postemergence applications of test chemicals formulated in the same manner. Plants ranged in height from 2 to 10 cm and were in the one- to two-leaf stage for the postemergence treatment. Treated plants and untreated controls were maintained in a greenhouse for approximately 10 days, after which time all treated plants were compared to untreated controls and visually evaluated for injury. Plant response ratings, summarized in Table A, are based on a 0 to 100 scale where 0 is no effect and 100 is complete control. A dash (-) response means no test result.

[2] = test system: foxtail, giant (giant foxtail, Setaria faberii); assay: Test A postemergence, visual plant response rating; conditions: for Foxtail, Giant plant response rating (0 to 100 scale): 500 g ai/ha, postemergence, 0 is no effect, 100 is complete control; for Foxtail, Giant plant response rating: Postemergence, 125 g ai/ha, 0 to 100 scale (0 no effect, 100 complete control)
Source text: as §1, §2

[3] = test system: Italian ryegrass (Lolium multiflorum); assay: Test A postemergence, visual plant response rating; conditions: for Ryegrass, Italian plant response rating (0 to 100 scale): 500 g ai/ha, postemergence, 0 is no effect, 100 is complete control; for Ryegrass, Italian plant response rating: Postemergence, 125 g ai/ha, 0 to 100 scale (0 no effect, 100 complete control)
Source text: as §1, §2

[4] = test system: blackgrass (Alopecurus myosuroides); assay: Test A postemergence, visual plant response rating; conditions: for Blackgrass plant response rating (0 to 100 scale): 500 g ai/ha, postemergence, 0 is no effect, 100 is complete control; for Blackgrass plant response rating: Postemergence, 125 g ai/ha, 0 to 100 scale (0 no effect, 100 complete control)
Source text: as §1, §2

kochia (Kochia scoparia) [5] = assay: Test A postemergence, visual plant response rating; conditions: for Kochia plant response rating (0 to 100 scale): 500 g ai/ha, postemergence, 0 is no effect, 100 is complete control; for Kochia plant response rating: Postemergence, 125 g ai/ha, 0 to 100 scale (0 no effect, 100 complete control)
Source text: as §1, §2

[6] = test system: wheat (Triticum aestivum); assay: Test A postemergence, visual plant response rating; conditions: for Wheat plant response rating (0 to 100 scale): 500 g ai/ha, postemergence, 0 is no effect, 100 is complete control; for Wheat plant response rating: Postemergence, 125 g ai/ha, 0 to 100 scale (0 no effect, 100 complete control)
Source text: as §1, §2

[7] = test system: pigweed (Amaranthus retroflexus); assay: Test A postemergence, visual plant response rating; conditions: for Pigweed plant response rating (0 to 100 scale): 500 g ai/ha, postemergence, 0 is no effect, 100 is complete control; for Pigweed plant response rating: Postemergence, 125 g ai/ha, 0 to 100 scale (0 no effect, 100 complete control)
Source text: as §1, §2

[8] = test system: galium (catchweed bedstraw, Galium aparine); assay: Test A postemergence, visual plant response rating; conditions: for Galium plant response rating (0 to 100 scale): 500 g ai/ha, postemergence, 0 is no effect, 100 is complete control; for Galium plant response rating: Postemergence, 125 g ai/ha, 0 to 100 scale (0 no effect, 100 complete control)
Source text: as §1, §2

corn (Zea mays) = assay: Test A postemergence, visual plant response rating; conditions: for Corn plant response rating (0 to 100 scale): 500 g ai/ha, postemergence, 0 is no effect, 100 is complete control; for Corn plant response rating: Postemergence, 125 g ai/ha, 0 to 100 scale (0 no effect, 100 complete control)
Source text: as §1, §2

[9] = test system: ragweed (common ragweed, Ambrosia elatior); assay: Test A postemergence, visual plant response rating; conditions: for Ragweed plant response rating (0 to 100 scale): 500 g ai/ha, postemergence, 0 is no effect, 100 is complete control; for Ragweed plant response rating: Postemergence, 125 g ai/ha, 0 to 100 scale (0 no effect, 100 complete control)
Source text: as §1, §2

[10] = test system: barnyardgrass (Echinochloa crus-galli); assay: Test B flooded paddy test, visual plant response rating; conditions: 250 g ai/ha, Flood, applied to paddy water, 2-leaf stage, evaluated after 13 to 15 days
Experimental: (§3) Plant species in the flooded paddy test selected from rice (Oryza sativa), sedge, umbrella (small-flower umbrella sedge, Cyperus difformis), ducksalad (Heteranhera limosa), and barnyardgrass (Echinochloa crus-galli) were grown to the 2-leaf stage for testing. At time of treatment, test pots were flooded to 3 cm above the soil surface treated by application of test compounds directly to the paddy water, and then maintained at that water depth for the duration of the test. Treated plants and controls were maintained in a greenhouse for 13 to 15 days, after which time all species were compared to controls and visually evaluated. […] A dash (-) response means no test result.

[11] = test system: ducksalad (Heteranhera limosa); assay: as above; conditions: 250 g ai/ha, Flood, applied to paddy water, 2-leaf stage, evaluated after 13 to 15 days
Experimental: as §3

[12] = test system: sedge, umbrella (small-flower umbrella sedge, Cyperus difformis); assay: as above; conditions: 250 g ai/ha, Flood, applied to paddy water, 2-leaf stage, evaluated after 13 to 15 days
Experimental: as §3

rice (Oryza sativa) = assay: as above; conditions: 250 g ai/ha, Flood, applied to paddy water, 2-leaf stage, evaluated after 13 to 15 days
Experimental: as §3

[13] = test system: barnyardgrass (Echinochloa crus-galli); assay: Test A preemergence, visual plant response rating; conditions: for Barnyardgrass plant response rating: 125 g ai/ha, preemergence, 0 to 100 scale, 0 no effect, 100 complete control; for Barnyardgrass plant response rating (0 to 100 scale): 500 g ai/ha Preemergence, approx. 10 days
Summary of the method: (§4)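 Preemergence: seeds in loam/sand blend given directed soil spray of compound in non-phytotoxic solvent with surfactant. Postemergence: plants 2–10 cm, one- to two-leaf stage, sprayed with same formulation. Visual injury rated vs untreated controls after ~10 days in greenhouse, 0 (no effect) to 100 (complete control).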

[14] = test system: foxtail, giant (giant foxtail, Setaria faberii); assay: Test A preemergence, visual plant response rating; conditions: for Foxtail, Giant plant response rating: 125 g ai/ha, preemergence, 0 to 100 scale, 0 no effect, 100 complete control; for Foxtail, Giant plant response rating (0 to 100 scale): 500 g ai/ha Preemergence, approx. 10 days
Summary of the method: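 Greenhouse pot test in loam–sand soil mix: compound in a surfactant-containing non-phytotoxic solvent applied preemergence (directed soil spray) or postemergence (one- to two-leaf plants, 2–10 cm). Injury scored visually after ~10 days, 0–100.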

[15] = test system: Italian ryegrass (Lolium multiflorum); assay: Test A preemergence, visual plant response rating; conditions: for Ryegrass, Italian plant response rating: 125 g ai/ha, preemergence, 0 to 100 scale, 0 no effect, 100 complete control; for Ryegrass, Italian plant response rating (0 to 100 scale): 500 g ai/ha Preemergence, approx. 10 days
Summary of the method: as §4

kochia (Kochia scoparia) [16] = assay: Test A preemergence, visual plant response rating; conditions: for Kochia plant response rating: 125 g ai/ha, preemergence, 0 to 100 scale, 0 no effect, 100 complete control; for Kochia plant response rating (0 to 100 scale): 500 g ai/ha Preemergence, approx. 10 days
Summary of the method: as §4

[17] = test system: pigweed (Amaranthus retroflexus); assay: Test A preemergence, visual plant response rating; conditions: for Pigweed plant response rating: 125 g ai/ha, preemergence, 0 to 100 scale, 0 no effect, 100 complete control; for Pigweed plant response rating (0 to 100 scale): 500 g ai/ha Preemergence, approx. 10 days
Summary of the method: as §4

[18] = test system: ragweed (common ragweed, Ambrosia elatior); assay: Test A preemergence, visual plant response rating; conditions: for Ragweed plant response rating: 125 g ai/ha, preemergence, 0 to 100 scale, 0 no effect, 100 complete control; for Ragweed plant response rating (0 to 100 scale): 500 g ai/ha Preemergence, approx. 10 days
Summary of the method: as §4

| Compound | Barnyardgrass plant response rating (0 to 100 scale) [1] | Barnyardgrass plant response rating [1] | Foxtail, Giant plant response rating (0 to 100 scale) [2] | Foxtail, Giant plant response rating [2] | Ryegrass, Italian plant response rating (0 to 100 scale) [3] | Ryegrass, Italian plant response rating [3] | Blackgrass plant response rating (0 to 100 scale) [4] | Blackgrass plant response rating [4] | Kochia plant response rating (0 to 100 scale) (kochia (Kochia scoparia) [5]) | Kochia plant response rating (kochia (Kochia scoparia) [5]) | Wheat plant response rating (0 to 100 scale) [6] | Wheat plant response rating [6] | Pigweed plant response rating (0 to 100 scale) [7] | Pigweed plant response rating [7] | Galium plant response rating (0 to 100 scale) [8] | Galium plant response rating [8] | Corn plant response rating (0 to 100 scale) (corn (Zea mays)) | Corn plant response rating (corn (Zea mays)) | Ragweed plant response rating (0 to 100 scale) [9] | Ragweed plant response rating [9] | also measured |
| --- | --- | --- | --- | --- | --- | --- | --- | --- | --- | --- | --- | --- | --- | --- | --- | --- | --- | --- | --- | --- | --- |
| C#CCON=C(c1c(O)c(C)nn(C)c1=O)c1cccc2ccccc12 (mixture of isomers) [Compound 118] | 90 | 90 | 90 | 80 | 100 | 90 | 100 | 90 | 100 | 70 | 90 | 40 | 100 | 100 | 100 | 90 | 70 | 30 | 90 | 90 | Plant response rating, Barnyardgrass (0 to 100 scale, 0 is no effect, 100 is complete control) [10]: 0; Plant response rating, Ducksalad (0 to 100 scale, 0 is no effect, 100 is complete control) [11]: 55; Plant response rating, Sedge, Umbrella (0 to 100 scale, 0 is no effect, 100 is complete control) [12]: 35; Plant response rating, Rice (0 to 100 scale, 0 is no effect, 100 is complete control) (rice (Oryza sativa)): 0; Barnyardgrass plant response rating [13]: 60; Barnyardgrass plant response rating (0 to 100 scale) [13]: 100; Foxtail, Giant plant response rating [14]: 80; Foxtail, Giant plant response rating (0 to 100 scale) [14]: 100; Ryegrass, Italian plant response rating [15]: 100; Ryegrass, Italian plant response rating (0 to 100 scale) [15]: 100; Kochia plant response rating (kochia (Kochia scoparia) [16]): 40; Kochia plant response rating (0 to 100 scale) (kochia (Kochia scoparia) [16]): 60; Pigweed plant response rating [17]: 100; Pigweed plant response rating (0 to 100 scale) [17]: 100; Ragweed plant response rating [18]: 80; Ragweed plant response rating (0 to 100 scale) [18]: 100 |
| CON=C(c1cc(C)cs1)c1c(O)c(C)nn(C)c1=O (mixture of isomers) [Compound 133] | 0 | 0 | 10 | 0 | 0 | 0 | 0 | 0 | 60 | 20 | 0 | 0 | 80 | 50 | 60 | 20 | 0 | 0 | 30 | 10 | Plant response rating, Barnyardgrass (0 to 100 scale, 0 is no effect, 100 is complete control) [10]: 0; Plant response rating, Ducksalad (0 to 100 scale, 0 is no effect, 100 is complete control) [11]: 0; Plant response rating, Sedge, Umbrella (0 to 100 scale, 0 is no effect, 100 is complete control) [12]: 0; Plant response rating, Rice (0 to 100 scale, 0 is no effect, 100 is complete control) (rice (Oryza sativa)): 0; Barnyardgrass plant response rating [13]: 0; Barnyardgrass plant response rating (0 to 100 scale) [13]: 0; Foxtail, Giant plant response rating [14]: 0; Foxtail, Giant plant response rating (0 to 100 scale) [14]: 0; Ryegrass, Italian plant response rating [15]: 0; Ryegrass, Italian plant response rating (0 to 100 scale) [15]: 0; Kochia plant response rating (kochia (Kochia scoparia) [16]): 0; Kochia plant response rating (0 to 100 scale) (kochia (Kochia scoparia) [16]): 20; Pigweed plant response rating [17]: 0; Pigweed plant response rating (0 to 100 scale) [17]: 0; Ragweed plant response rating [18]: 0; Ragweed plant response rating (0 to 100 scale) [18]: 40 |
